Experimental data reported in PMC7619385 (ACS infectious diseases, 2025).

Molecular target: T1, LmxCLK1 (Leishmania mexicana, UniProt E9AMP2)
T1 sequence (E9AMP2 1-422): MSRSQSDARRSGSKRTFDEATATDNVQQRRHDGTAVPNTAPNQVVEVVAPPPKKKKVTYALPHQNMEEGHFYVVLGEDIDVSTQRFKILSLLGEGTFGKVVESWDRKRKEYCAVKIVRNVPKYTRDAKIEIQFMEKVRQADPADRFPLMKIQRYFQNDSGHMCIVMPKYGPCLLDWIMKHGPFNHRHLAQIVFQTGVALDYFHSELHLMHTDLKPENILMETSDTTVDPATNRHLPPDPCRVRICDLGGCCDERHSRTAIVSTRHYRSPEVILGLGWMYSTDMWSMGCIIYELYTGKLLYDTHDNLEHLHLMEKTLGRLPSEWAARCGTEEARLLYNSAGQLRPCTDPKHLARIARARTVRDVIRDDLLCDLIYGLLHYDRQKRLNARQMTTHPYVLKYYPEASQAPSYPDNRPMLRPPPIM
Experiment: biochemical
Type: binding
Settings: DSF, 10 µM compound, 2 µM LmxCLK1, Run 1

Row | Compound | ΔTm Run 1 [°C]
1 | CNC(=O)c1cc(Oc2ccc(NC(=O)Nc3ccc(Cl)c(C(F)(F)F)c3)c(F)c2)ccn1 [Regorafenib (BAY 73-4506)] | 0.1
2 | O=C(NOCC1CC1)c1ccc(F)c(F)c1Nc1ccc(I)cc1Cl [PD184352 (CI-1040)] | 0.1
3 | Cc1ccc(NC(=O)c2cccc(N(C)C)c2)cc1NC(=O)c1ccc(O)cc1 [ZM 336372] | -0.1
4 | COc1cccc(-c2cc(=O)c3ccccc3o2)c1N [PD98059] | 0.0
5 | NC(=O)Nc1sc(-c2ccc(F)cc2)cc1C(N)=O [TPCA-1] | 0.1
6 | AZD4547 | -0.1
7 | Nc1ncnc2c1c(-c1cnc3[nH]ccc3c1)nn2C1CCCC1 [PP121] | 0.9

Same assay, conditions: DSF, 10 µM compound, 2 µM LmxCLK1, Run 1; read-out: ΔTm Run 1

Row | Compound | ΔTm at 10 µM [°C]
8 | CN(C)Cc1cccc(N/C(=C2\C(=O)Nc3cc(C(N)=O)ccc32)c2ccccc2)c1 [BIX 02188] | 0.1
9 | COC[C@H]1OC(=O)c2coc3c2[C@@]1(C)C1=C(C3=O)[C@@H]2CCC(=O)[C@@]2(C)C[C@H]1OC(C)=O [Wortmannin] | 0
10 | Cn1cnc(N)c2ncnc1-2 [3-Methyladenine] | 0.2
11 | CC(C)NC[C@@H](C(=O)N1CCN(c2ncnc3c2[C@H](C)C[C@H]3O)CC1)c1ccc(Cl)cc1 [GDC-0068] | 0.4
12 | O=C(NC1CCNCC1)c1[nH]ncc1NC(=O)c1c(Cl)cccc1Cl [AT7519] | 0.4
13 | Cn1cc(C2=C(c3ccc(Cl)cc3Cl)C(=O)NC2=O)c2ccccc21 [SB216763] | 0.1
14 | Cc1cnc(NC(=O)Nc2cc(Br)c(C)cc2OC[C@@H]2CNCCO2)cn1 [LY2603618] | 0

Same assay, conditions: DSF, 10 µM compound, 2 µM LmxCLK1, Run 2

Row | Compound | ΔTm Run 2 [°C]
15 | CNC(=O)c1cc(Oc2ccc(NC(=O)Nc3ccc(Cl)c(C(F)(F)F)c3)c(F)c2)ccn1 [Regorafenib (BAY 73-4506)] | -0.3
16 | O=C(NOCC1CC1)c1ccc(F)c(F)c1Nc1ccc(I)cc1Cl [PD184352 (CI-1040)] | 0.1
17 | Cc1ccc(NC(=O)c2cccc(N(C)C)c2)cc1NC(=O)c1ccc(O)cc1 [ZM 336372] | -0.5
18 | COc1cccc(-c2cc(=O)c3ccccc3o2)c1N [PD98059] | -0.2
19 | NC(=O)Nc1sc(-c2ccc(F)cc2)cc1C(N)=O [TPCA-1] | 0.2
20 | AZD4547 | -0.3
21 | Nc1ncnc2c1c(-c1cnc3[nH]ccc3c1)nn2C1CCCC1 [PP121] | 0.7

Same assay, conditions: DSF, 10 µM compound, 2 µM LmxCLK1, Run 2; read-out: ΔTm Run 2

Row | Compound | ΔTm at 10 µM [°C]
22 | CN(C)Cc1cccc(N/C(=C2\C(=O)Nc3cc(C(N)=O)ccc32)c2ccccc2)c1 [BIX 02188] | -0.2
23 | COC[C@H]1OC(=O)c2coc3c2[C@@]1(C)C1=C(C3=O)[C@@H]2CCC(=O)[C@@]2(C)C[C@H]1OC(C)=O [Wortmannin] | -0.3
24 | Cn1cnc(N)c2ncnc1-2 [3-Methyladenine] | 0
25 | CC(C)NC[C@@H](C(=O)N1CCN(c2ncnc3c2[C@H](C)C[C@H]3O)CC1)c1ccc(Cl)cc1 [GDC-0068] | 0
26 | O=C(NC1CCNCC1)c1[nH]ncc1NC(=O)c1c(Cl)cccc1Cl [AT7519] | 0.5
27 | Cn1cc(C2=C(c3ccc(Cl)cc3Cl)C(=O)NC2=O)c2ccccc21 [SB216763] | -0.1
28 | Cc1cnc(NC(=O)Nc2cc(Br)c(C)cc2OC[C@@H]2CNCCO2)cn1 [LY2603618] | -0.4

Same assay, conditions: DSF, 10 µM compound, 2 µM LmxCLK1, mean of two runs

Row | Compound | ΔTm Average [°C]
29 | CNC(=O)c1cc(Oc2ccc(NC(=O)Nc3ccc(Cl)c(C(F)(F)F)c3)c(F)c2)ccn1 [Regorafenib (BAY 73-4506)] | -0.1
30 | O=C(NOCC1CC1)c1ccc(F)c(F)c1Nc1ccc(I)cc1Cl [PD184352 (CI-1040)] | 0.1
31 | Cc1ccc(NC(=O)c2cccc(N(C)C)c2)cc1NC(=O)c1ccc(O)cc1 [ZM 336372] | -0.3
32 | COc1cccc(-c2cc(=O)c3ccccc3o2)c1N [PD98059] | -0.1
33 | NC(=O)Nc1sc(-c2ccc(F)cc2)cc1C(N)=O [TPCA-1] | 0.2
34 | AZD4547 | -0.2
35 | Nc1ncnc2c1c(-c1cnc3[nH]ccc3c1)nn2C1CCCC1 [PP121] | 0.8

Same assay, conditions: DSF, 10 µM compound, 2 µM LmxCLK1, mean of two runs; read-out: ΔTm Average

Row | Compound | ΔTm at 10 µM [°C]
36 | CN(C)Cc1cccc(N/C(=C2\C(=O)Nc3cc(C(N)=O)ccc32)c2ccccc2)c1 [BIX 02188] | 0
37 | COC[C@H]1OC(=O)c2coc3c2[C@@]1(C)C1=C(C3=O)[C@@H]2CCC(=O)[C@@]2(C)C[C@H]1OC(C)=O [Wortmannin] | -0.2
38 | Cn1cnc(N)c2ncnc1-2 [3-Methyladenine] | 0.1
39 | CC(C)NC[C@@H](C(=O)N1CCN(c2ncnc3c2[C@H](C)C[C@H]3O)CC1)c1ccc(Cl)cc1 [GDC-0068] | 0.2
40 | O=C(NC1CCNCC1)c1[nH]ncc1NC(=O)c1c(Cl)cccc1Cl [AT7519] | 0.4
41 | Cn1cc(C2=C(c3ccc(Cl)cc3Cl)C(=O)NC2=O)c2ccccc21 [SB216763] | 0
42 | Cc1cnc(NC(=O)Nc2cc(Br)c(C)cc2OC[C@@H]2CNCCO2)cn1 [LY2603618] | -0.2

Molecular target: NLuc::LmxCLK1 (Leishmania mexicana, UniProt E9AMP2)
Experiment: cell-based
Type: cell-based
Settings: 10 µM compound, tracer SV366, promastigotes
Description: All compounds were tested at a fixed concentration of 10 µM to enable direct comparison of their target occupancy in live cells.
Serially diluted probes (5 µL) were added to 85 µL of cells in culture media or 85 µL of purified protein. Final well volumes were adjusted to 100 µL with sterile Opti-MEM™ I Reduced Serum Medium (Thermo-Scientific) – for wells containing cells; or Kinase Buffer - for wells containing purified protein. For tracer displacement assays, samples were prepared as above, but final volume was brought to 100 µL by addition of vehicle or serially-diluted test compounds. Final DMSO concentration in these assays was 1%. […] Light emissions at 460+10 nm (BRET donor) and at 610+20 nm (BRET acceptor) were sequentially recorded (integration time = 0.5 s, gain = 3600) using a luminometer (BMG LABTECH Clariostar or Biotek Synergy HT). BRET values are reported in milli-BRET (mBRET) units (mBU), obtained by dividing the acceptor luminescence by the donor luminescence and multiplying the result by a factor of 1,000. BRET values were converted to blank-corrected probe occupancies (%) according to equation [1]: (1) Probeoccupancy(%)=X−Z/Y−Z×100 where X = mBRET value in the presence of the test compound and the probe, Y = mBRET value in the presence of probe only, and Z = mBRET value in the absence of probe and test compound. […]

Row | Compound | Target occupancy Run 1 [%] | Target occupancy Run 2 [%]
43 | CNC(=O)c1cc(Oc2ccc(NC(=O)Nc3ccc(Cl)c(C(F)(F)F)c3)c(F)c2)ccn1 [Regorafenib (BAY 73-4506)] | -4.0 | -5.3
44 | O=C(NOCC1CC1)c1ccc(F)c(F)c1Nc1ccc(I)cc1Cl [PD184352 (CI-1040)] | -2.3 | -19.9
45 | Cc1ccc(NC(=O)c2cccc(N(C)C)c2)cc1NC(=O)c1ccc(O)cc1 [ZM 336372] | -4.5 | -6.5
46 | COc1cccc(-c2cc(=O)c3ccccc3o2)c1N [PD98059] | -16.6 | -0.7
47 | NC(=O)Nc1sc(-c2ccc(F)cc2)cc1C(N)=O [TPCA-1] | 1.2 | -7.6
48 | AZD4547 | -24.6 | 21.5
49 | Nc1ncnc2c1c(-c1cnc3[nH]ccc3c1)nn2C1CCCC1 [PP121] | -0.4 | -14.8

Same assay, conditions: 10 µM compound, tracer SV366, promastigotes, mean of two experiments

Row | Compound | Target occupancy Average [%]
50 | CNC(=O)c1cc(Oc2ccc(NC(=O)Nc3ccc(Cl)c(C(F)(F)F)c3)c(F)c2)ccn1 [Regorafenib (BAY 73-4506)] | -4.6
51 | O=C(NOCC1CC1)c1ccc(F)c(F)c1Nc1ccc(I)cc1Cl [PD184352 (CI-1040)] | -11.1
52 | Cc1ccc(NC(=O)c2cccc(N(C)C)c2)cc1NC(=O)c1ccc(O)cc1 [ZM 336372] | -5.5
53 | COc1cccc(-c2cc(=O)c3ccccc3o2)c1N [PD98059] | -8.6
54 | NC(=O)Nc1sc(-c2ccc(F)cc2)cc1C(N)=O [TPCA-1] | -3.2
55 | AZD4547 | -1.5
56 | Nc1ncnc2c1c(-c1cnc3[nH]ccc3c1)nn2C1CCCC1 [PP121] | -7.6

Same assay, conditions: read-out: Target occupancy Average

Row | Compound | receptor occupancy at 10 µM [%]
57 | CN(C)Cc1cccc(N/C(=C2\C(=O)Nc3cc(C(N)=O)ccc32)c2ccccc2)c1 [BIX 02188] | -6.5
58 | COC[C@H]1OC(=O)c2coc3c2[C@@]1(C)C1=C(C3=O)[C@@H]2CCC(=O)[C@@]2(C)C[C@H]1OC(C)=O [Wortmannin] | -3.6
59 | Cn1cnc(N)c2ncnc1-2 [3-Methyladenine] | -2.2
60 | CC(C)NC[C@@H](C(=O)N1CCN(c2ncnc3c2[C@H](C)C[C@H]3O)CC1)c1ccc(Cl)cc1 [GDC-0068] | 0.3
61 | O=C(NC1CCNCC1)c1[nH]ncc1NC(=O)c1c(Cl)cccc1Cl [AT7519] | -13.8
62 | Cn1cc(C2=C(c3ccc(Cl)cc3Cl)C(=O)NC2=O)c2ccccc21 [SB216763] | -4.4
63 | Cc1cnc(NC(=O)Nc2cc(Br)c(C)cc2OC[C@@H]2CNCCO2)cn1 [LY2603618] | -11.8

Same assay, conditions: read-out: Target occupancy Run 1

Row | Compound | receptor occupancy at 10 µM [%]
64 | CN(C)Cc1cccc(N/C(=C2\C(=O)Nc3cc(C(N)=O)ccc32)c2ccccc2)c1 [BIX 02188] | 4.1
65 | COC[C@H]1OC(=O)c2coc3c2[C@@]1(C)C1=C(C3=O)[C@@H]2CCC(=O)[C@@]2(C)C[C@H]1OC(C)=O [Wortmannin] | -2.4
66 | Cn1cnc(N)c2ncnc1-2 [3-Methyladenine] | 2.8
67 | CC(C)NC[C@@H](C(=O)N1CCN(c2ncnc3c2[C@H](C)C[C@H]3O)CC1)c1ccc(Cl)cc1 [GDC-0068] | 6
68 | O=C(NC1CCNCC1)c1[nH]ncc1NC(=O)c1c(Cl)cccc1Cl [AT7519] | 6.4
69 | Cn1cc(C2=C(c3ccc(Cl)cc3Cl)C(=O)NC2=O)c2ccccc21 [SB216763] | 0.9
70 | Cc1cnc(NC(=O)Nc2cc(Br)c(C)cc2OC[C@@H]2CNCCO2)cn1 [LY2603618] | 7

Same assay, conditions: read-out: Target occupancy Run 2

Row | Compound | receptor occupancy at 10 µM [%]
71 | CN(C)Cc1cccc(N/C(=C2\C(=O)Nc3cc(C(N)=O)ccc32)c2ccccc2)c1 [BIX 02188] | -17
72 | COC[C@H]1OC(=O)c2coc3c2[C@@]1(C)C1=C(C3=O)[C@@H]2CCC(=O)[C@@]2(C)C[C@H]1OC(C)=O [Wortmannin] | -4.8
73 | Cn1cnc(N)c2ncnc1-2 [3-Methyladenine] | -7.1
74 | CC(C)NC[C@@H](C(=O)N1CCN(c2ncnc3c2[C@H](C)C[C@H]3O)CC1)c1ccc(Cl)cc1 [GDC-0068] | -5.5
75 | O=C(NC1CCNCC1)c1[nH]ncc1NC(=O)c1c(Cl)cccc1Cl [AT7519] | -34
76 | Cn1cc(C2=C(c3ccc(Cl)cc3Cl)C(=O)NC2=O)c2ccccc21 [SB216763] | -9.6
77 | Cc1cnc(NC(=O)Nc2cc(Br)c(C)cc2OC[C@@H]2CNCCO2)cn1 [LY2603618] | -30.5
